Source: paper PMC9505425, “Targeting of the Mitochondrial TET1 Protein by Pyrrolo[3,2-b]pyrrole Chelators” (International Journal of Molecular Sciences, 2022)
Values joined by “and” are separate entries in the source; they are usually repeats but may differ in a detail not shown here. Identical values can stand only once.

How the values were obtained:
Type in all cases: cell-based, human
[1] = system: H-1299 cells; assay: MTT cytotoxicity assay, H-1299
Procedure: (§1) The effects of the tested compounds 1–6 on HF-P4, U-118 MG, H1299, BT-20, and Caov-3 cell lines were evaluated by the MTT assay during 48 h treatment (Table 2 and Tables S2–S31). In all tested compounds, we recognized a difference in cytotoxicity between healthy cells (HF-P4) and cancer cell lines (BT-20, Caov-3, and H-1299). […] In the case of ovarian cancer, the authors discovered oncogenic and poor prognosis roles of TET1 in epithelial ovarian carcinoma (EOC). TET1 is believed to demethylate the epigenome and activate numerous oncogenic pathways in EOC. The aforementioned study presents a new mechanism where TET1 contributes to tumor development through collaboration with CK2α [21]. The overexpression of the TET1 protein was also found in triple negative breast cancer and was associated with an activation of PI3K/mTOR pathway and decreased overall survival.
(§2) A human glioblastoma cell line (U118-MG) and a human non-small-cell lung carcinoma cell line (H1299) were used for the cytotoxicity assay (MTT). Both cell lines were generously supplied by Dr. M. Masařik, PhD, Department of Pathological physiology, Masaryk University, Czech Republic. U118-MG cells were cultivated under standard conditions in Dulbecco’s modified Eagle’s medium (ATCC, Manassas, VA, USA) supplemented with 10% FBS and streptomycin (100 μg/mL) at 37 °C at a 5% CO2 atmosphere. H1299 cells were cultivated under standard conditions in RPMI 1640 (BioTech, Prague, Czech Republic) medium supplemented with 10% FBS and streptomycin (100 μg/mL) at 37 °C at a 5% CO2 atmosphere.
(§3) For the cytotoxicity assay, we used the following cell lines: human glioblastoma cell line U118-MG, human mammary gland/breast cell line BT-20, human ovary adenocarcinoma cell line Caov-3, and non-small-cell lung carcinoma H-1299. As previously mentioned, these cell lines contain a high level of the TET1 protein, which corresponds to a lower overall survival. In addition to these cell cultures, we used the human dermal fibroblast cell line HF-P4 as a healthy control. Determination of cytotoxicity was performed using the MTT [3-(4,5-dimethylthiazol-2-yl)-2,5-diphenyltetrazolium bromide] colorimetric assay. Viable cells from each cell line were cultured in 96-well plates (VWR, Stříbrná Skalice, Czech Republic) at a density of 1.0 × 10^5 cells per well and allowed to grow for 24 h in 200 μL of recommended medium. After a 1-day incubation, the medium was replaced with solutions of compounds 1–6 at concentration ranges of 0.1–20 μM. Each concentration was measured four times within one test, and the entire test was repeated three times. Tested compounds 1–6 were dissolved in DMSO and then diluted with corresponding medium to a final volume of 200 μL (maximum 1% DMSO). After 48 h exposure, cells were treated with 175 μL of MTT solution (P-LAB, Prague, Czech Republic) for 2 h. In the next step, MTT solution was removed, and 125 μL of DMSO (Penta, Prague, Czech Republic) was added to solubilize dark crystals of formazan formed in intact cells, and absorbance was measured at 570 nm by the enzyme-linked immunoabsorbent assay reader Infinite® 200 PRO (Tecan, Männedorf, Switzerland). The final DMSO concentration was smaller than 1% (v/v). The absorbance of untreated cells was considered 100%, and IC50 values were calculated by the GraphPad Prism 8 software. As a parameter for cytotoxicity, we used a concentration that inhibits 50% of cell growth (IC50).

[2] = system: HF-P4 cells; assay: MTT cytotoxicity assay, HF-P4; conditions: 48 h; for Cell viability %: repeats
Procedure: as §1
(§4) A human dermal fibroblast cell line was used for intracellular localization and cytotoxicity assay (MTT). Human fibroblast cells HF-P4 (human fibroblasts—patient 4) are normal dermal fibroblasts, which were obtained from the residual skin of a healthy patient who underwent plastic surgery (with informed consent of the patient). HF-P4 cell lines were obtained from the Department of Plastic Surgery, Third Faculty of Medicine, Charles University and University Hospital Královské Vinohrady, Prague, Czech Republic, as described by Szabo et al., 2011, and Dvořánková et al., 2019 [88, 89], and have been processed in accordance with the relevant local ethics committee and the Declaration of Helsinki protection of patients’ rights and benefits with written and signed informed consent of each patient. Cells were cultivated under standard conditions in Dulbecco’s modified Eagle’s medium (ATCC, Manassas, VA, USA), supplemented with 10% FBS and streptomycin (100 μg/mL) at 37 °C at a 5% CO2 atmosphere.
as §3

[3] = MTT cytotoxicity assay, HF-P4; conditions: human, HF-P4 normal human dermal fibroblasts, repeats, read-out: Cell viability %
Procedure: as §1, §4, §3

[4] = system: U-118 MG cells; assay: MTT cytotoxicity assay, U-118 MG; conditions: 48 h
Procedure: as §1, §2, §3

For `CCN(CC)c1ccc(/C=N/NC(=O)c2ccc(-c3cc4c(cc(-c5ccc(C(=O)N/N=C/c6ccc(N(CC)CC)cc6O)cc5)n4-c4ccc(C)cc4)n3-c3ccc(C)cc3)cc2)c(O)c1` [Compound 2], the Cell viability % ([1]; H-1299, 100 nM, 48 h, repeats, 0.1 µM) was 61.37% and 71.3%, the Cell viability % ([1]; H-1299, 500 nM, 48 h, repeats, 0.5 µM) was 66.22% and 72.36% and the Cell viability % ([1]; H-1299, 750 nM, 48 h, repeats, 0.75 µM) was 70.74% and 81.49%. For the same compound, the Cell viability % ([1]; H-1299, 1 uM, 48 h, repeats, 1 µM) was 69.87% and 82.47%, the Cell viability % ([1]; H-1299, 2.5 uM, 48 h, repeats, 2.5 µM) was 66.9068% and 60.82% and the Cell viability % ([1]; H-1299, 5 uM, 48 h, repeats, 5 µM) was 53.26% and 57.69%. The Cell viability % ([1]; H-1299, 7.5 uM, 48 h, repeats, 7.5 µM) was 36.17% and 50.75%, the Cell viability % ([1]; H-1299, 10 uM, 48 h, repeats, 10 µM) was 38.48% and 47.35% and the Cell viability % ([1]; H-1299, 15 uM, 48 h, repeats, 15 µM) was 39.64% and 37.79%. The Cell viability % ([1]; H-1299, 20 uM, 48 h, repeats, 20 µM) was 32.04% and 28.82%, the viability at 0.1 µM ([1]; Homo sapiens, NCI-H1299, 48 h, H-1299, 100 nM, repeats, read-out: Cell viability %) was 77.6% and the viability at 0.5 µM ([1]; Homo sapiens, NCI-H1299, 48 h, H-1299, 500 nM, repeats, read-out: Cell viability %) was 71.5%. It also gave a viability at 0.75 µM ([1]; Homo sapiens, NCI-H1299, 48 h, H-1299, 750 nM, repeats, read-out: Cell viability %) of 74.1%, a viability at 1 µM ([1]; Homo sapiens, NCI-H1299, 48 h, H-1299, 1 uM, repeats, read-out: Cell viability %) of 72.4% and a viability at 2.5 µM ([1]; Homo sapiens, NCI-H1299, 48 h, H-1299, 2.5 uM, repeats, read-out: Cell viability %) of 73.2%. It also gave a viability at 5 µM ([1]; Homo sapiens, NCI-H1299, 48 h, H-1299, 5 uM, repeats, read-out: Cell viability %) of 53.2%, a viability at 7.5 µM ([1]; Homo sapiens, NCI-H1299, 48 h, H-1299, 7.5 uM, repeats, read-out: Cell viability %) of 42.3% and a viability at 10 µM ([1]; Homo sapiens, NCI-H1299, 48 h, H-1299, 10 uM, repeats, read-out: Cell viability %) of 45.5%. The viability at 15 µM ([1]; Homo sapiens, NCI-H1299, 48 h, H-1299, 15 uM, repeats, read-out: Cell viability %) was 39.8%, the viability at 20 µM ([1]; Homo sapiens, NCI-H1299, 48 h, H-1299, 20 uM, repeats, read-out: Cell viability %) was 28.6% and the IC50 ([1]; Homo sapiens, NCI-H1299, MTT, 48 h) was 8.94 µM. For the same compound, the Cell viability % ([2]; HF-P4, 100 nM, 0.1 µM) was 112.667% and 100.0956% and 124.6811%, the Cell viability % ([2]; HF-P4, 500 nM, 0.5 µM) was 121.1654% and 117.1851% and the Cell viability % ([2]; HF-P4, 750 nM, 0.75 µM) was 106.3799% and 108.6149%. The Cell viability % ([2]; HF-P4, 1 uM, 1 µM) was 107.7419% and 92.48%, the Cell viability % ([2]; HF-P4, 2.5 uM, 2.5 µM) was 91.9392% and 112.4492% and 91.41% and the Cell viability % ([2]; HF-P4, 5 uM, 5 µM) was 91.3% and 88.77%. The Cell viability % ([2]; HF-P4, 7.5 uM, 7.5 µM) was 87.79% and 98.14%, the Cell viability % ([2]; HF-P4, 10 uM, 10 µM) was 82.92% and 77.13% and the Cell viability % ([2]; HF-P4, 15 uM, 15 µM) was 82.13% and 69.58%. For the same compound, the Cell viability % ([2]; HF-P4, 20 uM, 20 µM) was 51.8655% and 56.81%, the IC50 ([2]; Homo sapiens, MTT) was greater than 20 µM and the viability at 48 h, 0.5 µM ([3]; HF-P4, 500 nM) was 120%. It also gave a viability at 48 h, 0.75 µM ([3]; HF-P4, 750 nM) of 100%, a viability at 48 h, 1 µM ([3]; HF-P4, 1 uM) of 107% and a viability at 48 h, 5 µM ([3]; HF-P4, 5 uM) of 104%. The viability at 48 h, 7.5 µM ([3]; HF-P4, 7.5 uM) was 84.4%, the viability at 48 h, 10 µM ([3]; HF-P4, 10 uM) was 83.1% and the viability at 48 h, 15 µM ([3]; HF-P4, 15 uM) was 69.4%. For the same compound, the viability at 48 h, 20 µM ([3]; HF-P4, 20 uM) was 60.3%, the viability at 0.1 µM ([4]; Homo sapiens, U-118-MG, U-118 MG, 100 nM, repeats, read-out: Cell viability %) was 82.5% and the viability at 0.5 µM ([4]; Homo sapiens, U-118-MG, U-118 MG, 500 nM, repeats, read-out: Cell viability %) was 64%. The viability at 0.75 µM ([4]; Homo sapiens, U-118-MG, U-118 MG, 750 nM, repeats, read-out: Cell viability %) was 70%, the viability at 1 µM ([4]; Homo sapiens, U-118-MG, U-118 MG, 1 uM, repeats, read-out: Cell viability %) was 84.1% and the viability at 2.5 µM ([4]; Homo sapiens, U-118-MG, U-118 MG, 2.5 uM, repeats, read-out: Cell viability %) was 70.7%. For the same compound, the viability at 5 µM ([4]; Homo sapiens, U-118-MG, U-118 MG, 5 uM, repeats, read-out: Cell viability %) was 62.1%, the viability at 7.5 µM ([4]; Homo sapiens, U-118-MG, U-118 MG, 7.5 uM, repeats, read-out: Cell viability %) was 66.3% and the viability at 10 µM ([4]; Homo sapiens, U-118-MG, U-118 MG, 10 uM, repeats, read-out: Cell viability %) was 57.9%. It also gave a viability at 15 µM ([4]; Homo sapiens, U-118-MG, U-118 MG, 15 uM, repeats, read-out: Cell viability %) of 51.1%, a viability at 20 µM ([4]; Homo sapiens, U-118-MG, U-118 MG, 20 uM, repeats, read-out: Cell viability %) of 39.1% and an IC50 ([4]; Homo sapiens, U-118-MG, MTT) greater than 20 µM. The Cell viability % ([4]; U-118 MG, 100 nM, repeats, 0.1 µM) was 87.05%, the Cell viability % ([4]; U-118 MG, 500 nM, repeats, 0.5 µM) was 68.29% and 66.76% and the Cell viability % ([4]; U-118 MG, 750 nM, repeats, 0.75 µM) was 77.02% and 67.38%. For the same compound, the Cell viability % ([4]; U-118 MG, 1 uM, repeats) was 82.08% and 80.29%, the Cell viability % ([4]; U-118 MG, 2.5 uM, repeats) was 64.2773% and 70.34% and the Cell viability % ([4]; U-118 MG, 5 uM, repeats) was 65.5% and 62.23%. For the same compound, the Cell viability % ([4]; U-118 MG, 7.5 uM, repeats) was 62.32% and 65.79%, the Cell viability % ([4]; U-118 MG, 10 uM, repeats) was 65.41% and 61.07% and the Cell viability % ([4]; U-118 MG, 15 uM, repeats) was 55.67% and 56.45%. For the same compound, the Cell viability % ([4]; U-118 MG, 20 uM, repeats) was 44.6621% and 48.66%.
